What was measured:
Type in all cases: in vivo
[1] = tested on: barnyardgrass (Echinochloa crus-galli); assay: Test G Post-Emergence Protocol; conditions: Echinochloa crus-galli, post-emergence, 312 h, read-out: Barnyardgrass damage rating
Procedure, shortened: (§1)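 Post-emergence herbicidal damage, scored visually 0–100 at 13 days. Application at 15.625, 62.5 or 250 g/ha onto 8-day-old plants grown under glasshouse control.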

corn (Zea mays) [2] = assay: Test G Post-Emergence Protocol; conditions: Zea mays, post-emergence, 312 h, read-out: Corn damage rating
Procedure, shortened: as §1

[3] = tested on: ivy-leaved morning glory (Ipomoea hederacea); assay: Test G Post-Emergence Protocol; conditions: Ipomoea, post-emergence, 312 h, read-out: Morningglory, Ivy-leaved damage rating
Procedure, shortened: as §1

[4] = tested on: velvetleaf (Abutilon theophrasti); assay: Test G Post-Emergence Protocol; conditions: Abutilon theophrasti, post-emergence, 312 h, read-out: Velvetleaf damage rating
Procedure, shortened: as §1

[5] = tested on: giant foxtail (Setaria faberi); assay: Test G Post-Emergence Protocol; conditions: Setaria faberi, post-emergence, 312 h, read-out: Foxtail, Giant damage rating
Procedure, shortened: as §1

[6] = tested on: redroot pigweed (Amaranthus retroflexus); assay: Test G Post-Emergence Protocol; conditions: Amaranthus retroflexus, post-emergence, 312 h, read-out: Pigweed, Redroot damage rating
Procedure, shortened: as §1

[7] = tested on: barnyardgrass (Echinochloa crus-galli); assay: Test G Pre-Emergence Protocol; conditions: Echinochloa crus-galli, pre-emergence, 312 h, evaluated after 13 days
Procedure, shortened: (§2)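 Spraying took place one day after sowing, at 15.625, 62.5 or 250 g/ha, using an acetone/water (50:50) spray solution containing 0.5% Tween 20. Plants were kept under glasshouse conditions (24/16 °C, 14 h light, 65% humidity, watered twice daily), and injury was rated 0–100 at day 13.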

corn (Zea mays) [8] = assay: Test G Pre-Emergence Protocol; conditions: Zea mays, pre-emergence, 312 h, evaluated after 13 days
Procedure, shortened: as §2

[9] = tested on: ivy-leaved morning glory (Ipomoea hederacea); assay: Test G Pre-Emergence Protocol; conditions: Ipomoea, pre-emergence, 312 h, evaluated after 13 days
Procedure, shortened: as §2

[10] = tested on: velvetleaf (Abutilon theophrasti); assay: Test G Pre-Emergence Protocol; conditions: Abutilon theophrasti, pre-emergence, 312 h, evaluated after 13 days
Procedure, shortened: as §2

[11] = tested on: giant foxtail (Setaria faberi); assay: Test G Pre-Emergence Protocol; conditions: Setaria faberi, pre-emergence, 312 h, evaluated after 13 days
Procedure, shortened: as §2

[12] = tested on: redroot pigweed (Amaranthus retroflexus); assay: Test G Pre-Emergence Protocol; conditions: Amaranthus retroflexus, pre-emergence, 312 h, evaluated after 13 days
Procedure, shortened: as §2

[13] = 15.625 g ai/ha, evaluated after 13 days (100=total damage to plant; 0=no damage to plant)
[14] = 62.5 g ai/ha, evaluated after 13 days, 100=total damage to plant, 0=no damage to plant
[15] = 250 g ai/ha, evaluated after 13 days, 100=total damage to plant, 0=no damage to plant

Structure (SMILES): Cc1c(F)ccc(NC(=O)[C@@H]2C(=O)N(C)C[C@H]2c2ccc(C(F)(F)F)cc2)c1Cl (racemic) [Compound 1651]
- pest or weed control at 15.625 g/ha [1, 13]: 0%
- pest or weed control at 62.5 g/ha [1, 14]: 30%
- pest or weed control at 250 g/ha [1, 15]: 10%
- plant injury at 15.625 g/ha (corn (Zea mays) [2]; [13]): 0%
- plant injury at 62.5 g/ha (corn (Zea mays) [2]; [14]): 0%
- plant injury at 250 g/ha (corn (Zea mays) [2]; [15]): 0%
- pest or weed control at 15.625 g/ha [3, 13]: 0%
- pest or weed control at 62.5 g/ha [3, 14]: 10%
- pest or weed control at 250 g/ha [3, 15]: 10%
- pest or weed control at 15.625 g/ha [4, 13]: 0%
- pest or weed control at 62.5 g/ha [4, 14]: 0%
- pest or weed control at 250 g/ha [4, 15]: 10%
- pest or weed control at 15.625 g/ha [5, 13]: 0%
- pest or weed control at 62.5 g/ha [5, 14]: 70%
- pest or weed control at 250 g/ha [5, 15]: 90%
- pest or weed control at 15.625 g/ha [6, 13]: 0%
- pest or weed control at 62.5 g/ha [6, 14]: 0%
- pest or weed control at 250 g/ha [6, 15]: 0%
- pest or weed control at 15.625 g/ha ([7]; 15.625 g ai/ha, read-out: Barnyardgrass damage rating (100=total damage to plant; 0=no damage to plant)): 0%
- pest or weed control at 62.5 g/ha ([7]; 62.5 g ai/ha, 100=total damage to plant, 0=no damage to plant, read-out: Barnyardgrass damage rating): 0%
- pest or weed control at 250 g/ha ([7]; 250 g ai/ha, read-out: Barnyardgrass damage rating (100=total damage to plant; 0=no damage to plant)): 20%
- plant injury at 15.625 g/ha (corn (Zea mays) [8]; 15.625 g ai/ha, read-out: Corn damage rating (100=total damage to plant; 0=no damage to plant)): 0%
- plant injury at 62.5 g/ha (corn (Zea mays) [8]; 62.5 g ai/ha, 100=total damage to plant, 0=no damage to plant, read-out: Corn damage rating): 0%
- plant injury at 250 g/ha (corn (Zea mays) [8]; 250 g ai/ha, read-out: Corn damage rating (100=total damage to plant; 0=no damage to plant)): 0%
- pest or weed control at 15.625 g/ha ([9]; 15.625 g ai/ha, read-out: Morningglory, Ivy-leaved damage rating (100=total damage to plant; 0=no damage to plant)): 0%
- pest or weed control at 62.5 g/ha ([9]; 62.5 g ai/ha, 100=total damage to plant, 0=no damage to plant, read-out: Morningglory, Ivy-leaved damage rating): 0%
- pest or weed control at 250 g/ha ([9]; 250 g ai/ha, read-out: Morningglory, Ivy-leaved damage rating (100=total damage to plant; 0=no damage to plant)): 0%
- pest or weed control at 15.625 g/ha ([10]; 15.625 g ai/ha, read-out: Velvetleaf damage rating (100=total damage to plant; 0=no damage to plant)): 0%
- pest or weed control at 62.5 g/ha ([10]; 62.5 g ai/ha, 100=total damage to plant, 0=no damage to plant, read-out: Velvetleaf damage rating): 0%
- pest or weed control at 250 g/ha ([10]; 250 g ai/ha, read-out: Velvetleaf damage rating (100=total damage to plant; 0=no damage to plant)): 10%
- pest or weed control at 15.625 g/ha ([11]; 15.625 g ai/ha, read-out: Foxtail, Giant damage rating (100=total damage to plant; 0=no damage to plant)): 0%
- pest or weed control at 62.5 g/ha ([11]; 62.5 g ai/ha, 100=total damage to plant, 0=no damage to plant, read-out: Foxtail, Giant damage rating): 20%
- pest or weed control at 250 g/ha ([11]; 250 g ai/ha, read-out: Foxtail, Giant damage rating (100=total damage to plant; 0=no damage to plant)): 80%
- pest or weed control at 15.625 g/ha ([12]; 15.625 g ai/ha, read-out: Pigweed, Redroot damage rating (100=total damage to plant; 0=no damage to plant)): 0%
- pest or weed control at 62.5 g/ha ([12]; 62.5 g ai/ha, 100=total damage to plant, 0=no damage to plant, read-out: Pigweed, Redroot damage rating): 10%
- pest or weed control at 250 g/ha ([12]; 250 g ai/ha, read-out: Pigweed, Redroot damage rating (100=total damage to plant; 0=no damage to plant)): 20%

From patent US12077503B2, “Substituted cyclic amides and their use as herbicides” (FMC CORPORATION, priority 2015, dated 2024)
